# Laboratory results from patent US20160320368A1, “METHOD AND APPARATUS FOR PREDICTING EFFECTIVE DOSE OR SENSITIVITY OF 5-HYDROXY-1H-IMIDAZOLE-4-CARBOXAMIDE, METHOD FOR DETERMINING AMOUNT OF XANTHOSINE MONOPHOSPHATE, AND TREATMENT AGENT AND METHOD FOR TREATING MYELODYSPLASTIC SYNDROME” (FUJIFILM Corporation, priority 2014, published 2016).
# Tested on: human myeloid leukemia cell line SKM-1
# Experiment: Cell growth inhibitory activity (CellTiter-Glo, 72 hours)
# Format: cell-based
# Conditions: SKM-1, 72 hours
# Procedure: A ¾ hydrate of Compound A was used as a test compound.
# SKM-1 (available from National Institute of Biomedical Innovation JCRB Cell Bank) was used as a human myeloid leukemia cell line.
# 90 μL (5000 cells) of the human myeloid leukemia cell line SKM-1 was seeded onto a 96-well plate. 10 μL of a PBS solution of the test compound (0 μmol/L, 1 μmol/L, 3 μmol/L, 10 μmol/L, 30 μmol/L, 100 μmol/L, 300 μmol/L, 1000 μmol/L, 3000 μmol/L, or 10000 μmol/L in terms of Compound A) was added to the plate which was then incubated in 5% CO2 at 37° C. for 72 hours. 100 μL of CellTiter-Glo (manufactured by Promega) was added to each well to prepare a cell lysate.
# The relative value of chemiluminescence intensity was calculated by a plate reader.
smiles,measurement,setting,value
"NC(=O)c1nc[nH]c1O [Compound A, 5-Hydroxy-1H-imidazole-4-carboxamide]",IC50,,21.5 µM
same,IC50,in terms of Compound A,2.73 µg/mL
